# Read-outs that look alike come from different tables or passages of the source.
# Assays:
# turkey P2Y1 receptor [1] = molecular target: T1, turkey P2Y1 receptor (Meleagris gallopavo, UniProt P49652); assay: Increase in [Ca2+]i in 1321N1 astrocytoma cells expressing turkey P2Y1 receptor; assay type: cell-based
# turkey P2Y1 receptor [2] = molecular target: T1, turkey P2Y1 receptor; conditions: read-out: EC50 at P2Y1R, cited from earlier work
# human eNPP1 = assay: Resistance to degradation by human eNPP1; assay type: in vitro ADME; conditions: after 20 min, 37 °C, pH 8.5
# isolated rat pancreas = conditions: listed as IA; cited from earlier work
# insulin secretion = conditions: cited from earlier work
# blood glucose levels [3] = assay: Oral glucose tolerance test in naive mice; assay type: in vivo, mouse; conditions: OGTT; for effect on blood glucose levels: 30 mg/kg iv
# P2Y2 receptor = assay: Agonist activity at P2Y2 receptor; assay type: cell-based; conditions: data not shown
# P2Y4 receptor = assay: Agonist activity at P2Y4 receptor; assay type: cell-based; conditions: data not shown
# P2Y6 receptor = assay: Agonist activity at P2Y6 receptor; assay type: cell-based; conditions: data not shown
# blood glucose levels [4] = assay: Oral glucose tolerance test in naive rats; assay type: in vivo, rat; conditions: OGTT, 30 mg/kg iv, within 45 min, saline 155 mg/dL
# blood glucose levels [5] = assay: Glucose tolerance test in STZ diabetic mouse model; assay type: in vivo; conditions: STZ diabetic mice, 30 mg/kg iv
# blood glucose levels [6] = assay: Glucose tolerance test in db+/db- diabetic mouse model; assay type: in vivo; conditions: db+/db− mice, 30 mg/kg iv
# tail bleeding = assay: Tail-bleed assay in rats, oral administration; assay type: in vivo, rat; conditions: oral 30 mg/kg, 30 min before tail-cut
# [7] = Solubility in aqueous media; assay type: physicochemical
# [8] = Chemical stability at acidic pH 1.4; assay type: physicochemical; conditions: pH 1.4, 37 °C, pseudo-first-order model
# [9] = read-out: EC50 at P2Y1R, increase in [Ca2+]i, human 1321N1 astrocytoma cells, turkey P2Y1R
# T1 sequence (P49652 whole entry): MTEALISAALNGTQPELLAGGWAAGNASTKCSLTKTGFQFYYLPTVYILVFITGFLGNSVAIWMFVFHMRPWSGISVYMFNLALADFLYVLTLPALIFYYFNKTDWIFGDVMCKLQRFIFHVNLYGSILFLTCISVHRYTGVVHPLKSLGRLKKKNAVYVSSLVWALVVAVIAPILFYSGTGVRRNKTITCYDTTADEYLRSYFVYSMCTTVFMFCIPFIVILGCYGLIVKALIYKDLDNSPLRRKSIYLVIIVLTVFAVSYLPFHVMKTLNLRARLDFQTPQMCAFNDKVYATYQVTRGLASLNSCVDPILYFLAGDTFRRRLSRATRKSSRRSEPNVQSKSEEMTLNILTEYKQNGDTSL
compound,measurement,setting,value
"P^1-Borano P^1,P^3-5′-Di-2-methylthioadenosine 5′-Triphosphate, A Isomer [analogue 4A]",EC50,turkey P2Y1 receptor [1]; [9],140 nM
BP(=O)(OCC1OC(n2cnc3c(N)ncnc32)C(O)C1O)OP(=O)(O)OP(=O)(O)OCC1OC(n2cnc3c(N)ncnc32)C(O)C1O (stereo not drawn) [Ap3(α-B)A],EC50,turkey P2Y1 receptor [2]; first-named (A) isomer,760 nM
same,EC50,turkey P2Y1 receptor [2]; second-named (B) isomer,800 nM
"P^1-Borano P^1,P^3-5′-Di-2-methylthioadenosine 5′-Triphosphate, B Isomer [analogue 4B]",EC50,turkey P2Y1 receptor [1]; [9],190 nM
"Nc1ncnc2c1ncn2[C@@H]1O[C@H](COP(=O)(O)OP(=O)(O)O)[C@@H](O)[C@H]1O [ADP, adenosine 5′ diphosphate, reference compound]",% hydrolysis of human eNPP1,human eNPP1,25%
"[BH3-][P@@](=O)(OC[C@H]1O[C@@H](n2cnc3c(N)nc(SC)nc32)[C@H](O)[C@@H]1O)OP(=O)([O-])OP(=O)([O-])[O-].[Na+].[Na+].[Na+].[Na+] [analogue 1A, 2-methylthio-ATP(α-B)]",increase of insulin secretion over basal secretion,isolated rat pancreas,up to 9 fold
same,insulin secretion in vivo,insulin secretion,failed to induce insulin secretion in vivo
"[BH3-][P@](=O)(OC[C@H]1O[C@@H](n2cnc3c(N)nc(SC)nc32)[C@H](O)[C@@H]1O)OP(=O)([O-])[O-].[Na+].[Na+].[Na+] [analogue 3B, 2-Methylthioadenosine 5′-O-(′-Borano)diphosphate, B Isomer]",effect on blood glucose levels,blood glucose levels [3],ineffective
"P1-Borano P1,P3-5′-Di-2-methylthioadenosine 5′-Triphosphate [analogue 4]",fold increase in potency at P2Y1R by MeS substitution at C2,turkey P2Y1 receptor [1]; analogue 4 isomers vs Ap3(α-B)A isomers,4.6 fold
"CSc1nc(N)c2ncn([C@@H]3O[C@H](COP(=O)(O)OP(=O)(O)O)[C@@H](O)[C@H]3O)c2n1 [2-MeS-ADP, reference compound]",% hydrolysis of human eNPP1,human eNPP1,16%
"[BH3-][P@@](=O)(OC[C@H]1O[C@@H](n2cnc3c(N)ncnc32)[C@H](O)[C@@H]1O)OP(=O)([O-])[O-].[Na+].[Na+].[Na+] [analogue 2A, ADP(α-B)]",% hydrolysis of human eNPP1,human eNPP1,5%
"[BH3-][P@@](=O)(OC[C@H]1O[C@@H](n2cnc3c(N)nc(SC)nc32)[C@H](O)[C@@H]1O)OP(=O)([O-])[O-].[Na+].[Na+].[Na+] [analogue 3A, 2-Methylthioadenosine 5′-O-(′-Borano)diphosphate, A Isomer]",EC50,turkey P2Y1 receptor [1],38 nM
same,agonist activity at P2Y2 receptor,P2Y2 receptor,no activity
same,agonist activity at P2Y4 receptor,P2Y4 receptor,no activity
same,agonist activity at P2Y6 receptor,P2Y6 receptor,no activity
same,% hydrolysis of human eNPP1,human eNPP1,4%
same,blood glucose level after glucose load,blood glucose levels [4],ca. 87 mg/dL
same,"effect on blood glucose levels, dose comparison",blood glucose levels [3]; 10 and 30 mg/kg iv,higher dose being more effective at reducing the glucose load
same,effect on blood glucose levels,blood glucose levels [5],lower blood glucose levels to normal values
same,effect on blood glucose levels,blood glucose levels [6],lower blood glucose levels to normal values
same,bleeding time,tail bleeding,increased
same,tail bleeding blood volume,tail bleeding,increased
same,solubility in aqueous media,[7],highly soluble
"[BH3-]P(=O)(OC[C@H]1O[C@@H](n2cnc3c(N)nc(SC)nc32)[C@H](O)[C@@H]1O)OP(=O)([O-])[O-].[Na+].[Na+].[Na+] (stereo partly shown) [analogue 3, 2-Methylthioadenosine 5′-O-(′-Borano)diphosphate]",hydrolysis rate constant at pH 1.4,[8],2 × 10^−5 s^−1
same,effect on blood glucose levels,blood glucose levels [3],less effective than analogue 3A alone
